# Source: patent publication US20220282295A1, “SINGLE-CELL LEVEL CONNECTOMICS USING A DNA-SYNTHESIS BASED BARCODING SYSTEM AND METHODS OF USING THE SAME” (Northwestern University, priority 2021, published 2022)
# Key:
# [1] = tested on: HEK 293T cells; assay: TdT-based nucleotide incorporation into hgRNA sites (DNA-synthesis based recording system, Cas9 + hgRNA + TdT) upon deoxyribonucleoside input signal; type: cell-based
# Method: The disclosed system has been prototyped in HEK-293T cells. A hgRNA was co-expressed with terminal deoxynucleotidyl transferase (TdT), and Cas9. The TdT was directed to the double-stranded breaks created by Cas9 at the hgRNA sites and added nucleotides in HEK 293T cells (FIG. 1B).
# HEK 293T cells were treated with an adenosine deaminase inhibitor, pentostatin (deoxycoformycin, dCF), that inhibits degradation of dAdo, resulting in an altered nucleotide pool. The added small molecules (dAdo, dGuo, dCF etc) were defined as the input signal. The percentage change in the TdT-based nucleotides incorporated into the hgRNA sites was defined as the output signal.
# (§1) Further, this system allowed for the recording of a dose response in the output signal for varying concentrations of the input signals of dAdo, dThd and dGuo (FIGS. 2A, 2B and 2C). […] None of the current genetically encoded signal recording systems^12,13 synthesize a DNA-based record in a dose response manner in mammalian cells. This salient feature of being able to synthesize a record of various NTP concentrations in the genome of cells can help in the spatial reconstruction of tightly packed together cells in tissue. Moreover, since the output signal is high (e.g. with 5 mM dThd), several lower concentrations can be distinguished, thus providing a single-cell level resolution.
# [2] = tested on: HEK cells; assay: Toxicity of input signal treatment to cells; type: cell-based; conditions: 500 μM treatment
# Excerpt: as §1
# [3] = input signal 5 mM, HEK 293T cells, FIG. 2B
structure (smiles),measurement,setting,value
"Nc1nc2c(ncn2[C@H]2C[C@H](O)[C@@H](CO)O2)c(=O)[nH]1 [dGuo, deoxyguanosine]",output signal response to input signal (in words),[1]; HEK 293T cells,high output signal response
"Nc1ncnc2c1ncn2[C@H]1C[C@H](O)[C@@H](CO)O1 [dAdo, deoxyadenosine]",toxicity to HEK cells,[2],toxic
same,dose response in the output signal with each increasing concentration of input signal,"[1]; 0 to 500 μM, except for 50 μM treatment, FIG. 2A",higher output signal
same,output signal response to input signal (in words),[1]; HEK 293T cells,high output signal response
"Cc1cn([C@H]2C[C@H](O)[C@@H](CO)O2)c(=O)[nH]c1=O [dThd, deoxythymidine]",output signal (percentage change in TdT-based nucleotides incorporated into the hgRNA sites) for A,[1]; [3],8%
same,output signal (percentage change in TdT-based nucleotides incorporated into the hgRNA sites) for C,[1]; [3],10%
same,output signal (percentage change in TdT-based nucleotides incorporated into the hgRNA sites) for G,[1]; [3],17.5%
same,output signal (percentage change in TdT-based nucleotides incorporated into the hgRNA sites) for T,[1]; [3],20%
"OC[C@H]1O[C@@H](n2cnc3c2NC=NC[C@H]3O)C[C@@H]1O [dCF, pentostatin]",output signal response to input signal (in words),[1]; HEK 293T cells,high output signal response
